# Source: PubChem BioAssay (NCI)
#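 96-well plates; 48 h exposure; 5 concentrations. Endpoints by linear interpolation between flanking doses. Not reached: highest tested concentration assigned. TGI is the concentration that stops growth completely.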
# How the values were obtained:
# Assay in all cases: NCI anticancer screen, dose series, 48 h
# K-562 leukemia = system: K-562 leukemia
# M14 melanoma = system: M14 melanoma
# SF-295 CNS = system: SF-295 CNS
# KM12 colon = system: KM12 colon
# CAKI-1 renal = system: CAKI-1 renal
# EKVX NSCLC = system: EKVX NSCLC
# SK-MEL-2 melanoma = system: SK-MEL-2 melanoma
# NCI/ADR-RES ovarian = system: NCI/ADR-RES ovarian
# A549 NSCLC = system: A549 NSCLC
# OVCAR-5 ovarian = system: OVCAR-5 ovarian
# MALME-3M melanoma = system: MALME-3M melanoma
# 786-0 renal = system: 786-0 renal
# HOP-62 NSCLC = system: HOP-62 NSCLC
# NCI-H460 lung = system: NCI-H460 lung
# T-47D breast = system: T-47D breast
# CCRF-CEM leukemia = system: CCRF-CEM leukemia
# UACC-62 melanoma = system: UACC-62 melanoma
# SNB-19 CNS = system: SNB-19 CNS
# MDA-N = system: MDA-N
# U251 CNS = system: U251 CNS
# HS 578T breast = system: HS 578T breast
# OVCAR-3 ovarian = system: OVCAR-3 ovarian
# SW-620 colon = system: SW-620 colon
# OVCAR-8 ovarian = system: OVCAR-8 ovarian
# SK-MEL-28 melanoma = system: SK-MEL-28 melanoma
# MDA-MB-435 = system: MDA-MB-435
# NCI-H522 lung = system: NCI-H522 lung
# TK-10 renal = system: TK-10 renal
# NCI-H23 lung = system: NCI-H23 lung
# OVCAR-4 ovarian = system: OVCAR-4 ovarian
# RPMI-8226 leukemia = system: RPMI-8226 leukemia
# PC-3 prostate = system: PC-3 prostate
# COLO 205 colon = system: COLO 205 colon
# UO-31 renal = system: UO-31 renal
# SK-OV-3 ovarian = system: SK-OV-3 ovarian
# DU-145 prostate = system: DU-145 prostate
# HOP-92 NSCLC = system: HOP-92 NSCLC
# SR leukemia = system: SR leukemia
# BT-549 breast = system: BT-549 breast
# HL-60(TB) leukemia = system: HL-60(TB) leukemia
# SK-MEL-5 melanoma = system: SK-MEL-5 melanoma
# HT29 colon = system: HT29 colon
# HCT-15 colon = system: HCT-15 colon
# HCT-116 colon = system: HCT-116 colon
# MCF7 breast = system: MCF7 breast
# NCI-H226 lung = system: NCI-H226 lung
# SNB-75 CNS = system: SNB-75 CNS
# LOX IMVI melanoma = system: LOX IMVI melanoma
# IGROV1 ovarian = system: IGROV1 ovarian
# ACHN renal = system: ACHN renal
# SN12C renal = system: SN12C renal
# UACC-257 melanoma = system: UACC-257 melanoma
# SF-268 CNS = system: SF-268 CNS
# A498 renal = system: A498 renal
# SF-539 CNS = system: SF-539 CNS
# HCC-2998 colon = system: HCC-2998 colon
# RXF 393 renal = system: RXF 393 renal
# MDA-MB-231 breast = system: MDA-MB-231 breast
structure (smiles),measurement,setting,value
O=[N+]([O-])c1ccc(N/N=C2\C=CCCC2)c([N+](=O)[O-])c1,TGI,K-562 leukemia,> 100 µM
same,TGI,M14 melanoma,> 100 µM
same,TGI,SF-295 CNS,> 100 µM
same,TGI,KM12 colon,> 100 µM
same,TGI,CAKI-1 renal,> 100 µM
same,TGI,EKVX NSCLC,> 100 µM
same,TGI,SK-MEL-2 melanoma,> 100 µM
same,TGI,NCI/ADR-RES ovarian,> 100 µM
same,TGI,A549 NSCLC,> 100 µM
same,TGI,OVCAR-5 ovarian,> 100 µM
same,TGI,MALME-3M melanoma,> 100 µM
same,TGI,786-0 renal,> 100 µM
same,TGI,HOP-62 NSCLC,> 100 µM
same,TGI,NCI-H460 lung,> 100 µM
same,TGI,T-47D breast,> 100 µM
same,TGI,CCRF-CEM leukemia,> 100 µM
same,TGI,UACC-62 melanoma,> 100 µM
same,TGI,SNB-19 CNS,> 100 µM
same,TGI,MDA-N,> 100 µM
same,TGI,U251 CNS,> 100 µM
same,TGI,HS 578T breast,> 100 µM
same,TGI,OVCAR-3 ovarian,> 100 µM
same,TGI,SW-620 colon,> 100 µM
same,TGI,OVCAR-8 ovarian,> 100 µM
same,TGI,SK-MEL-28 melanoma,> 100 µM
same,TGI,MDA-MB-435,> 100 µM
same,TGI,NCI-H522 lung,> 100 µM
same,TGI,TK-10 renal,> 100 µM
same,TGI,NCI-H23 lung,> 100 µM
same,TGI,OVCAR-4 ovarian,> 100 µM
same,TGI,RPMI-8226 leukemia,> 100 µM
same,TGI,PC-3 prostate,> 100 µM
same,TGI,COLO 205 colon,> 100 µM
same,TGI,UO-31 renal,> 100 µM
same,TGI,SK-OV-3 ovarian,> 100 µM
same,TGI,DU-145 prostate,> 100 µM
same,TGI,HOP-92 NSCLC,> 100 µM
same,TGI,SR leukemia,> 100 µM
same,TGI,BT-549 breast,> 100 µM
same,TGI,HL-60(TB) leukemia,> 100 µM
same,TGI,SK-MEL-5 melanoma,> 100 µM
same,TGI,HT29 colon,> 100 µM
same,TGI,HCT-15 colon,> 100 µM
same,TGI,HCT-116 colon,> 100 µM
same,TGI,MCF7 breast,> 100 µM
same,TGI,NCI-H226 lung,> 100 µM
same,TGI,SNB-75 CNS,73 µM
same,TGI,LOX IMVI melanoma,> 100 µM
same,TGI,IGROV1 ovarian,> 100 µM
same,TGI,ACHN renal,> 100 µM
same,TGI,SN12C renal,> 100 µM
same,TGI,UACC-257 melanoma,> 100 µM
same,TGI,SF-268 CNS,> 100 µM
O=C(O)c1ccc(Cc2ccccc2C(=O)O)cc1,TGI,K-562 leukemia,> 100 µM
same,TGI,M14 melanoma,> 100 µM
same,TGI,SF-295 CNS,> 100 µM
same,TGI,KM12 colon,> 100 µM
same,TGI,CAKI-1 renal,> 100 µM
same,TGI,EKVX NSCLC,> 100 µM
same,TGI,A498 renal,> 100 µM
same,TGI,SK-MEL-2 melanoma,> 100 µM
same,TGI,NCI/ADR-RES ovarian,> 100 µM
same,TGI,A549 NSCLC,> 100 µM
same,TGI,OVCAR-5 ovarian,> 100 µM
same,TGI,MALME-3M melanoma,> 100 µM
same,TGI,786-0 renal,> 100 µM
same,TGI,HOP-62 NSCLC,> 100 µM
same,TGI,NCI-H460 lung,> 100 µM
same,TGI,SF-539 CNS,> 100 µM
same,TGI,T-47D breast,> 100 µM
same,TGI,CCRF-CEM leukemia,> 100 µM
same,TGI,UACC-62 melanoma,> 100 µM
same,TGI,SNB-19 CNS,> 100 µM
same,TGI,MDA-N,> 100 µM
same,TGI,U251 CNS,> 100 µM
same,TGI,HS 578T breast,> 100 µM
same,TGI,OVCAR-3 ovarian,> 100 µM
same,TGI,SW-620 colon,> 100 µM
same,TGI,OVCAR-8 ovarian,> 100 µM
same,TGI,SK-MEL-28 melanoma,> 100 µM
same,TGI,MDA-MB-435,> 100 µM
same,TGI,NCI-H522 lung,> 100 µM
same,TGI,TK-10 renal,> 100 µM
same,TGI,NCI-H23 lung,> 100 µM
same,TGI,OVCAR-4 ovarian,> 100 µM
same,TGI,RPMI-8226 leukemia,> 100 µM
same,TGI,PC-3 prostate,> 100 µM
same,TGI,COLO 205 colon,> 100 µM
same,TGI,HCC-2998 colon,> 100 µM
same,TGI,UO-31 renal,> 100 µM
same,TGI,SK-OV-3 ovarian,> 100 µM
same,TGI,RXF 393 renal,> 100 µM
same,TGI,HOP-92 NSCLC,> 100 µM
same,TGI,SR leukemia,> 100 µM
same,TGI,BT-549 breast,> 100 µM
same,TGI,HL-60(TB) leukemia,> 100 µM
same,TGI,SK-MEL-5 melanoma,> 100 µM
same,TGI,HT29 colon,> 100 µM
same,TGI,HCT-15 colon,> 100 µM
same,TGI,HCT-116 colon,> 100 µM
same,TGI,MCF7 breast,> 100 µM
same,TGI,NCI-H226 lung,> 100 µM
same,TGI,SNB-75 CNS,> 100 µM
same,TGI,LOX IMVI melanoma,> 100 µM
same,TGI,IGROV1 ovarian,> 100 µM
same,TGI,ACHN renal,> 100 µM
same,TGI,MDA-MB-231 breast,> 100 µM
same,TGI,SN12C renal,> 100 µM
same,TGI,UACC-257 melanoma,> 100 µM
same,TGI,SF-268 CNS,> 100 µM
